Counter-ions that a name gives are not always drawn. Like-named read-outs stand apart in the source and are kept apart here.
What was measured:
human M3 receptor = molecular target: T1, human M3 receptor (Homo sapiens, UniProt P20309); assay: Test for binding to human M3 receptor
T1 construct: expressed in transfected cells; host or cells: CHO cells
In short: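 CHO-cell crude membranes expressing human M3 were incubated with [N-methyl-3H]-(−)-scopolamine methyl chloride in 50 mM Tris-HCl, 0.5 mM EDTA, pH 7.4, for 60 min at room temperature. Bound ligand was collected on PEI-pretreated glass-fibre filters and counted by liquid scintillation. Ki was calculated from IC50 and the radioligand Kd.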

neurokinin NK2 receptor = molecular target: T2, neurokinin NK2 receptor (Cavia porcellus, UniProt Q64077); assay: Effect of suppressing neurokinin A-induced airway contraction (in vivo, intratracheal administration); design: species or system guinea pig; conditions: guinea pigs, intratracheal administration 60 minutes before 4 μg/kg i.v. NKA, AUC of increase in airway pressure over 10 minutes; for ED50: guinea pig, read-out: ID50 (the source's name)
T2 construct: Using healthy guinea pigs (body weight, 350 to 550 g; Hartley male guinea pigs); from tissue; host or cells: live anaesthetised Hartley male guinea pigs (airway, in vivo)
T2 sequence (Q64077 1-402): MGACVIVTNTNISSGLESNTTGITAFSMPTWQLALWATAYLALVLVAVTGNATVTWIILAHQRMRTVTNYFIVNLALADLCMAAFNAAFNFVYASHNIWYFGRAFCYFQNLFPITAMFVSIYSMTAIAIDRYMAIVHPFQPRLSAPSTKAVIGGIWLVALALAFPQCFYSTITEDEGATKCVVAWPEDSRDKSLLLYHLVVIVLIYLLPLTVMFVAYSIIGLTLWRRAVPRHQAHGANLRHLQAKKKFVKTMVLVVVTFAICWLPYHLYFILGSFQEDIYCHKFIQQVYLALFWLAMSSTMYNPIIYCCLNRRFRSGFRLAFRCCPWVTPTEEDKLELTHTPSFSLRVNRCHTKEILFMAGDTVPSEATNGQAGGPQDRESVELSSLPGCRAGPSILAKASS
Method: (§1) Using healthy guinea pigs (body weight, 350 to 550 g; Hartley male guinea pigs), the effect of suppressing airway contraction induced by neurokinin A (NKA), which is an NK2 receptor agonist, was examined by a modified method of Konzett-Roessler (Naunyn-Schmiedebergs Arch. Exp. Pathol. Pharmakol. 195, 71 [1940]) using airway pressure as an indicator.
A tracheal cannula and a venous cannula were attached to a guinea pig anesthetized with pentobarbital (50 mg/mL solution, 0.40 to 0.50 mL/body, subcutaneous administration). An arterial cannula filled with heparin-containing physiological saline (100 U/mL) was further attached, and blood pressure and heart rate were monitored via an amplifier and an instantaneous heart rate meter. Subsequently, gallamine (20 mg/body, intravenous administration) was administered to terminate spontaneous breathing, and 10 mL/kg of positive pressure breathing (Ugo-Basile Biological Research Apparatus, Cat. No. 7025) was rapidly performed at 60 times/min. The airway pressure during artificial breathing was detected with a pressure transducer (TP-200T or TP-400T; Nihon Kohden Corporation) attached to a side branch of the tracheal cannula, amplified (AP-601G; Nihon Kohden Corporation), and recorded in a recorder. After the airway pressure, blood pressure, and heart rate were stabilized, 4 μg/kg of NKA was intravenously administered from the venous cannula to induce airway contraction, and the airway pressure was measured for the following 10 minutes.
The test substance was dissolved in a 5% glucose solution, and a 0.5 mL/kg solution was intratracheally administered with an intratracheal administration apparatus (model 1A-1B; Penn-Century, Inc.) 60 minutes before stimulation with NKA.
(§2) The AUC of increase in the airway pressure over 10 minutes after administration of NKA was determined as the intensity of NKA-induced airway contraction and calculated as an ID50 value from the inhibition rate based on the value of the control group (5% glucose solution intratracheal administration group).

neurokinin NK1 receptor = molecular target: T3, neurokinin NK1 receptor (Cavia porcellus, UniProt P30547); assay: Effect of suppressing substance P-induced airway contraction (in vivo, intratracheal administration); design: species or system guinea pig; conditions: guinea pigs, intratracheal administration 60 minutes before 20 μg/kg i.v. SP, AUC of increase in airway pressure over 10 minutes; for ED50: guinea pig, read-out: ID50 (the source's name)
T3 construct: Using healthy guinea pigs (body weight, 350 to 550 g; Hartley male guinea pigs); from tissue; host or cells: live anaesthetised Hartley male guinea pigs (airway, in vivo)
Method: as §1, with “substance P (SP),” for “neurokinin A (NKA),”, “NK1” for “NK2”
A tracheal cannula and a venous cannula were attached to a guinea pig anesthetized with pentobarbital (50 mg/mL solution, 0.40 to 0.50 mL/body, subcutaneous administration). An arterial cannula filled with heparin-containing physiological saline (100 U/mL) was further attached, and blood pressure and heart rate were monitored via an amplifier and an instantaneous heart rate meter. Subsequently, gallamine (20 mg/body, intravenous administration) was administered to terminate spontaneous breathing, and then 10 mL/kg of positive pressure breathing (Ugo-Basile Biological Research Apparatus, Cat. No. 7025) was rapidly performed at 60 times/min. The airway pressure during artificial breathing was detected with a pressure transducer (TP-200T or TP-400T; Nihon Kohden Corporation) attached to a side branch of the tracheal cannula, amplified (AP-601G; Nihon Kohden Corporation), and recorded in a recorder. After the airway pressure, blood pressure, and heart rate were stabilized, 20 μg/kg of SP was intravenously administered from the venous cannula to induce airway contraction, and the airway pressure was measured for the following 10 minutes.
The test substance was dissolved in a 5% glucose solution, a 0.5 mL/kg solution was intratracheally administered with an intratracheal administration apparatus (model 1A-1B; Penn-Century, Inc.) 60 minutes before stimulation with SP.
as §2, with “SP” for “NKA”, “SP-induced” for “NKA-induced”

[1] = CHO cells expressing human M3 receptor, [N-methyl-3H]-(-)-Scopolamine methyl chloride 0.5 nM, Ki from IC50 and Kd, read-out: Ki

T1 sequence (P20309 whole entry): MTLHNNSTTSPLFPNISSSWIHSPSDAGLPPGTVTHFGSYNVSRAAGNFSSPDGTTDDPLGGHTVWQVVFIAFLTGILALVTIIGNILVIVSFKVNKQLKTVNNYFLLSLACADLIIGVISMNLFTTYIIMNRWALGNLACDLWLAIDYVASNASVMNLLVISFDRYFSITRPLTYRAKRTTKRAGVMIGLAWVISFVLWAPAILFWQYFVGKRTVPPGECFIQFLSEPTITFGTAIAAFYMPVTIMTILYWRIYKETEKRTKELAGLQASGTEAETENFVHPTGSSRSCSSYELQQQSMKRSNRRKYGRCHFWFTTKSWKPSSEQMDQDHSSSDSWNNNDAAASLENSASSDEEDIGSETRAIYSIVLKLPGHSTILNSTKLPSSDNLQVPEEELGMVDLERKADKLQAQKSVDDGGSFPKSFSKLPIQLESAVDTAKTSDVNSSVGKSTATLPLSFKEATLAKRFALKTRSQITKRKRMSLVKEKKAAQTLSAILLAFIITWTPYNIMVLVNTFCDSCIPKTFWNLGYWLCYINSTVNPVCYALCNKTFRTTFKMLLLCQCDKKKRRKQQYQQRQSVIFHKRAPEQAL
T3 sequence (P30547 whole entry): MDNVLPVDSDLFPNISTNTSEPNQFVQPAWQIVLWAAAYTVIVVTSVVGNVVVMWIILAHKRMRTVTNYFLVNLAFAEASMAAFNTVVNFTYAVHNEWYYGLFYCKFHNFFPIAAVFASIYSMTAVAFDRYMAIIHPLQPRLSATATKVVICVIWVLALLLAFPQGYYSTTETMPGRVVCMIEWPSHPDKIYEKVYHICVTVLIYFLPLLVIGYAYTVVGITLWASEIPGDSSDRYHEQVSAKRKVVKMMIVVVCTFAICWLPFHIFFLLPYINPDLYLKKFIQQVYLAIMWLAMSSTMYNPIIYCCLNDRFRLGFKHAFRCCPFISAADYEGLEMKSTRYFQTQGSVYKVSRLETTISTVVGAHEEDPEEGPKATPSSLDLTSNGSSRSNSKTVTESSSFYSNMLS

Cc1cc(NCCCCCC(=O)N(C)CCN2CCC(OC(=O)Nc3ccccc3-c3ccccc3)CC2)ccc1C(=O)N(C)CCCN(C)C(=O)CO[C@H]1Cc2ccccc2C12CCN(CC[C@@]1(c3ccc(F)cc3)CN(C(=O)c3cc(C(F)(F)F)cc(C(F)(F)F)c3)CO1)CC2 [Example 18, 1-(2-{[6-({4-[{3-[({[(2S)-1′-{2-[(5R)-3-[3,5-Bis(trifluoromethyl)benzoyl]-5-(4-fluorophenyl)-1,3-oxazolidin-5-yl]ethyl}-2,3-dihydrospiro[indene-1,4′-piperidin]-2-yl]oxy}acetyl)(methyl)amino]propyl}(methyl)carbamoyl]-3-methylphenyl}amino)hexanoyl](methyl)amino}ethyl)piperidin-4-yl biphenyl-2-ylcarbamate trihydrochloride]
Ki (human M3 receptor): 1.2 nM
ED50 (neurokinin NK2 receptor): 0.0453 mg/kg
ED50 (neurokinin NK1 receptor): 0.0614 mg/kg

Cc1cc(NCCCCCC(=O)N(C)CCN2CCC(OC(=O)Nc3ccccc3-c3ccccc3)CC2)sc1C(=O)N(C)CCCN(C)C(=O)CO[C@H]1Cc2ccccc2C12CCN(CC[C@@]1(c3ccc(F)cc3)CN(C(=O)c3cc(C(F)(F)F)cc(C(F)(F)F)c3)CO1)CC2 [Example 30, 1-(2-{[6-({5-[{3-[({[(2S)-1′-{2-[(5R)-3-[3,5-Bis(trifluoromethyl)benzoyl]-5-(4-fluorophenyl)-1,3-oxazolidin-5-yl]ethyl}-2,3-dihydrospiro[indene-1,4′-piperidin]-2-yl]oxy}acetyl)(methyl)amino]propyl}(methyl)carbamoyl]-4-methyl-2-thienyl}amino)hexanoyl](methyl)amino}ethyl)piperidin-4-yl biphenyl-2-ylcarbamate trihydrochloride]
Ki (human M3 receptor): 0.62 nM
ED50 (neurokinin NK2 receptor): 0.0632 mg/kg
ED50 (neurokinin NK1 receptor): 0.0388 mg/kg

CN(CCN1CCC(OC(=O)Nc2ccccc2-c2ccccc2)CC1)C(=O)CCCCCNc1nc2ccc(C(=O)N(C)CCCN(C)C(=O)CO[C@H]3Cc4ccccc4C34CCN(CC[C@@]3(c5ccc(F)cc5)CN(C(=O)c5cc(C(F)(F)F)cc(C(F)(F)F)c5)CO3)CC4)cc2s1 [Example 93, 1-(2-{[6-({6-[{3-[({[(2S)-1′-{2-[(5R)-3-[3,5-Bis(trifluoromethyl)benzoyl]-5-(4-fluorophenyl)-1,3-oxazolidin-5-yl]ethyl}-2,3-dihydrospiro[indene-1,4′-piperidin]-2-yl]oxy}acetyl)(methy)amino]propyl}(methyl)carbamoyl]-1,3-benzothiazol-2-yl}amino)hexanoyl](methyl)amino}ethyl)piperidin-4-yl biphenyl-2-ylcarbamate]
Ki (human M3 receptor; [1]): 0.6 nM
ID50 (neurokinin NK2 receptor): 0.0437 mg/kg
ID50 (neurokinin NK1 receptor): 0.0416 mg/kg

CN(CCN1CCC(OC(=O)Nc2ccccc2-c2ccccc2)CC1)C(=O)CCCCCNCc1ccc(C(=O)N(C)CCCN(C)C(=O)CO[C@H]2Cc3ccccc3C23CCN(CC[C@@]2(c4ccc(F)cc4)CN(C(=O)c4cc(C(F)(F)F)cc(C(F)(F)F)c4)CO2)CC3)s1 [Example 1, 1-{2-[{6-[({5-[{3-[({[(2S)-1′-{2-[(5R)-3-[3,5-Bis(trifluoromethyl)benzoyl]-5-(4-fluorophenyl)-1,3-oxazolidin-5-yl]ethyl}-2,3-dihydrospiro[indene-1,4′-piperidin]-2-yl]oxy}acetyl)(methyl)amino]propyl}(methyl)carbamoyl]-2-thienyl}methyl)amino]hexanoyl}(methyl)amino]ethyl}piperidin-4-yl biphenyl-2-ylcarbamate]
Ki (human M3 receptor; [1]): 1.4 nM
ED50 (neurokinin NK2 receptor): 0.0049 mg/kg
ED50 (neurokinin NK1 receptor): 0.0147 mg/kg

CN(CCN1CCC(OC(=O)Nc2ccccc2-c2ccccc2)CC1)C(=O)CCCCCNc1ccc(C(=O)N(C)CCCN(C)C(=O)CO[C@H]2Cc3ccccc3C23CCN(CC[C@@]2(c4ccc(F)cc4)CN(C(=O)c4cc(C(F)(F)F)cc(C(F)(F)F)c4)CO2)CC3)cc1 [Example 72, 1-(2-{[6-({4-[{3-[({[(2S)-1′-{2-[(5R)-3-[3,5-Bis(trifluoromethyl)benzoyl]-5-(4-fluorophenyl)-1,3-oxazolidin-5-yl]ethyl}-2,3-dihydrospiro[indene-1,4′-piperidin]-2-yl]oxy}acetyl)(methyl)amino]propyl}(methyl)carbamoyl]phenyl}amino)hexanoyl](methyl)amino}ethyl)piperidin-4-yl biphenyl-2-ylcarbamate]
Ki (human M3 receptor; [1]): 1.6 nM
ED50 (neurokinin NK2 receptor): 0.0151 mg/kg
ED50 (neurokinin NK1 receptor): 0.0266 mg/kg

CN(CCN1CCC(OC(=O)Nc2ccccc2-c2ccccc2)CC1)C(=O)CCCCNc1ccc(C(=O)N(C)CCCN(C)C(=O)CO[C@H]2Cc3ccccc3C23CCN(CC[C@@]2(c4ccc(F)cc4)CN(C(=O)c4cc(C(F)(F)F)cc(C(F)(F)F)c4)CO2)CC3)cc1 [Example 32, 1-(2-{[5-({4-[{3-[({[(2S)-1′-{2-[(5R)-3-[3,5-Bis(trifluoromethyl)benzoyl]-5-(4-fluorophenyl)-1,3-oxazolidin-5-yl]ethyl}-2,3-dihydrospiro[indene-1,4′-piperidin]-2-yl]oxy}acetyl)(methyl)amino]propyl}(methyl)carbamoyl]phenyl}amino)pentanoyl](methyl)amino}ethyl)piperidin-4-yl biphenyl-2-ylcarbamate trihydrochloride]
Ki (human M3 receptor): 1.1 nM
ED50 (neurokinin NK2 receptor): 0.0356 mg/kg
ED50 (neurokinin NK1 receptor): 0.0202 mg/kg

CN(CCN1CCC(OC(=O)Nc2ccccc2-c2ccccc2)CC1)C(=O)CCCCCNc1ccc(C(=O)N2CCCN(C(=O)CO[C@H]3Cc4ccccc4C34CCN(CC[C@@]3(c5ccc(F)cc5)CN(C(=O)c5cc(C(F)(F)F)cc(C(F)(F)F)c5)CO3)CC4)CC2)cc1 [Example 110, 1-{2-[{6-[(4-{[4-({[(2S)-1′-{2-[(5R)-3-[3,5-Bis(trifluoromethyl)benzoyl]-5-(4-fluorophenyl)-1,3-oxazolidin-5-yl)ethyl}-2,3-dihydrospiro[indene-1,4′-piperidin]-2-yl]oxy}acetyl)-1,4-diazepan-1-yl]carbonyl}phenyl)amino]hexanoyl}(methyl)amino]ethyl}piperidin-4-yl biphenyl-2-ylcarbamate trihydrochloride]
Ki (human M3 receptor): 0.93 nM
ED50 (neurokinin NK2 receptor): 0.0135 mg/kg
ED50 (neurokinin NK1 receptor): 0.0174 mg/kg

— US8476253B2, “Amide derivative” (Daiichi Sankyo Company, Limited, priority 2009, dated 2013)
